Among the data in patent publication US11957687B2 (REGENERON PHARMACEUTICALS, INC., priority 2019, dated 2024) are IC50 values, retold here.

Chain of HSD17B13 (Q7Z5P4 other isoform, or with tags, fused parts or gaps): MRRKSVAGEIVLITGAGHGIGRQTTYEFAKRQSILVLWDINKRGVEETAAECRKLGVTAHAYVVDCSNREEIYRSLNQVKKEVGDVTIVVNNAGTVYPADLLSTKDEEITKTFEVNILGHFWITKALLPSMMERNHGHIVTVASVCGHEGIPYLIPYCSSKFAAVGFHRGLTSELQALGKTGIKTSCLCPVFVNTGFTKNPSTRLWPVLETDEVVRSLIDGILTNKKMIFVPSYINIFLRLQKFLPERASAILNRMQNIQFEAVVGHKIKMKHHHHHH

The assay addresses HSD17B13 (Homo sapiens (Human), UniProt Q7Z5P4). Put plainly: HSD17B13 enzymatic inhibition assay (150 nM or 50 nM HSD17B13). Format: biochemical. To be noted: 50 nM HSD17B13; read-out: Inhibition of 50 nM of HSD17B13 IC50.
Usually IC50 stands for the concentration that gives 50% inhibition. For the compound `O=C(NC(c1ccccc1)c1ccc(N2CCOCC2)cc1)c1ccc(C(F)(F)F)[nH]c1=O` (centres unmarked) [Compound 48, N-((4-morpholinophenyl)(phenyl)methyl)-2-oxo-6-(trifluoromethyl)-1,2-dihydropyridine-3-carboxamide], the half-inhibitory concentration (IC50) was 2490 nM.

In the case of `N#Cc1ccc(C(NC(=O)c2ccc(C(F)(F)F)[nH]c2=O)c2ccc(C#N)cc2)cc1` [Compound 49, N-(bis(4-cyanophenyl)methyl)-2-oxo-6-(trifluoromethyl)-1,2-dihydropyridine-3-carboxamide], the half-maximal inhibitory concentration (IC50) was found to be 980 nM.

On to `COc1ccc2c(c1)Oc1ccccc1C2NC(=O)c1ccc(C(F)(F)F)[nH]c1=O` (centres unmarked) [Compound 54, N-(3-methoxy-9H-xanthen-9-yl)-2-oxo-6-(trifluoromethyl)-1,2-dihydropyridine-3-carboxamide], for which the IC50 came to 1480 nM.

In the case of `COc1ccc2c(c1)Oc1cc(OC)ccc1C2NC(=O)c1ccc(C(F)(F)F)[nH]c1=O` [Compound 56, N-(3,6-dimethoxy-9H-xanthen-9-yl)-2-oxo-6-(trifluoromethyl)-1,2-dihydropyridine-3-carboxamide], the IC50 came to 440 nM.

Turning to `COc1ccc2c(c1)Oc1cccc(OC)c1C2NC(=O)c1ccc(C(F)(F)F)[nH]c1=O` (centres unmarked) [Compound 57, N-(1,6-dimethoxy-9H-xanthen-9-yl)-2-oxo-6-(trifluoromethyl)-1,2-dihydropyridine-3-carboxamide], the IC50 turned out to be 460 nM.

Turning to `O=C(NC(c1ccccc1)C1CCCCC1)c1ccc(C(F)(F)F)[nH]c1=O` (centres unmarked) [Compound 58, N-(cyclohexyl(phenyl)methyl)-2-oxo-6-(trifluoromethyl)-1,2-dihydropyridine-3-carboxamide], the half-maximal inhibitory concentration (IC50) was 2890 nM.

On to `O=C(NC1c2ccccc2-c2ccccc21)c1cnc(Cc2ccccc2)[nH]c1=O` [Compound 59, 2-benzyl-N-(9H-fluoren-9-yl)-6-oxo-1,6-dihydropyrimidine-5-carboxamide], for which the IC50 is over 10000 nM.

As to `O=C(Nc1cc(-c2ccccc2)cc(-c2ccccc2)c1)c1ccc(C(F)(F)F)[nH]c1=O` [Compound 60, N-([1,1′:3′,1″-terphenyl]-5′-yl)-2-oxo-6-(trifluoromethyl)-1,2-dihydropyridine-3-carboxamide], the IC50 was over 10000 nM.

As to `Cc1ccc(C(NC(=O)c2ccc(C(F)F)[nH]c2=O)c2ccc(C)cc2)cc1` [Compound 61, N-(di-p-tolylmethyl)-6-(difluoromethyl)-2-oxo-1,2-dihydropyridine-3-carboxamide], the 50% inhibitory concentration (IC50) worked out at 2250 nM.

Turning to `Cc1cccc(C(NC(=O)c2ccc(C(F)(F)F)[nH]c2=O)c2cccc(C)c2)c1` [Compound 62, N-(di-m-tolylmethyl)-6-(trifluoromethyl)-2-oxo-1,2-dihydropyridine-3-carboxamide], the 50% inhibitory concentration (IC50) was found to be 1110 nM.

On to `CC(=O)Nc1ccc(C(NC(=O)c2ccc(C(F)(F)F)[nH]c2=O)c2ccccc2)cc1` (centres unmarked) [Compound 66, N-((4-acetamidophenyl)(phenyl)methyl)-2-oxo-6-(trifluoromethyl)-1,2-dihydropyridine-3-carboxamide], for which the IC50 was determined as 7220 nM.

As to `O=C(NC(c1ccc(Cl)cc1)c1ccccn1)c1ccc(C(F)(F)F)[nH]c1=O` (centres unmarked) [Compound 67, N-((4-chlorophenyl)(pyridin-2-yl)methyl)-2-oxo-6-(trifluoromethyl)-1,2-dihydropyridine-3-carboxamide], the IC50 worked out at 2270 nM.

Take `O=C(NC(c1ccncc1)c1ccc(Cl)cc1)c1ccc(C(F)(F)F)[nH]c1=O` (centres unmarked) [Compound 68, N-((4-chlorophenyl)(pyridin-4-yl)methyl)-2-oxo-6-(trifluoromethyl)-1,2-dihydropyridine-3-carboxamide]: the half-maximal inhibitory concentration (IC50) was determined as 2530 nM.

Turning to `O=C(NC(c1ccc(Cl)cc1)c1cccnc1)c1ccc(C(F)(F)F)[nH]c1=O` (centres unmarked) [Compound 69, N-((4-chlorophenyl)(pyridin-3-yl)methyl)-2-oxo-6-(trifluoromethyl)-1,2-dihydropyridine-3-carboxamide], the IC50 was found to be 2590 nM.

As for `O=C(NC(c1ccc(Cl)cc1)c1cnccn1)c1ccc(C(F)(F)F)[nH]c1=O` (centres unmarked) [Compound 70, N-((4-chlorophenyl)(pyrazin-2-yl)methyl)-2-oxo-6-(trifluoromethyl)-1,2-dihydropyridine-3-carboxamide], the concentration for half-maximal inhibition (IC50) is over 10000 nM.

Consider `O=C(NC(c1ccc(Cl)cc1)c1ncccn1)c1ccc(C(F)(F)F)[nH]c1=O` (centres unmarked) [Compound 71, N-((4-chlorophenyl)(pyrimidin-2-yl)methyl)-2-oxo-6-(trifluoromethyl)-1,2-dihydropyridine-3-carboxamide], for which the half-maximal inhibitory concentration (IC50) is 5850 nM.

Take `O=C(NC(c1ccccc1)c1cccc(Br)n1)c1ccc(C(F)(F)F)[nH]c1=O` (centres unmarked) [Compound 72, N-((6-bromopyridin-2-yl)(phenyl)methyl)-2-oxo-6-(trifluoromethyl)-1,2-dihydropyridine-3-carboxamide]: the 50% inhibitory concentration (IC50) came out at 7050 nM.

Regarding `O=C(NC(c1ccncc1)c1ccncc1)c1ccc(C(F)(F)F)[nH]c1=O` [Compound 73, N-(di(pyridin-4-yl)methyl)-2-oxo-6-(trifluoromethyl)-1,2-dihydropyridine-3-carboxamide], the half-inhibitory concentration (IC50) is over 10000 nM.

On to `O=C(Cc1ccccc1)Nc1ccc(C(NC(=O)c2ccc(C(F)(F)F)[nH]c2=O)c2ccccc2)cc1` (centres unmarked) [Compound 74, N-(phenyl(4-(2-phenylacetamido)phenyl)methyl)-2-oxo-6-(trifluoromethyl)-1,2-dihydropyridine-3-carboxamide], for which the IC50 is 1370 nM.

Consider `O=C(Nc1ccc(C(NC(=O)c2ccc(C(F)(F)F)[nH]c2=O)c2ccccc2)cc1)c1ccccc1` (centres unmarked) [Compound 75, N-((4-benzamidophenyl)(phenyl)methyl)-2-oxo-6-(trifluoromethyl)-1,2-dihydropyridine-3-carboxamide], for which the IC50 amounted to 1870 nM.

With `O=C(NC(c1ccccc1)c1ccc(C2CCOCC2)cc1)c1ccc(C(F)(F)F)[nH]c1=O` (centres unmarked) [Compound 76, N-(phenyl(4-(tetrahydro-2H-pyran-4-yl)phenyl)methyl)-2-oxo-6-(trifluoromethyl)-1,2-dihydropyridine-3-carboxamide], the IC50 was 1700 nM.

As to `O=C(NC(c1ccccc1)c1ccc(C2CCC2)cc1)c1ccc(C(F)(F)F)[nH]c1=O` (centres unmarked) [Compound 77, N-((4-cyclobutylphenyl)(phenyl)methyl)-2-oxo-6-(trifluoromethyl)-1,2-dihydropyridine-3-carboxamide], the IC50 is 680 nM.

Consider `COc1ccc(C(NC(=O)c2c(C)cc(C(F)(F)F)[nH]c2=O)c2ccccc2)cc1` (centres unmarked) [Compound 78, N-((4-methoxyphenyl)(phenyl)methyl)-4-methyl-2-oxo-6-(trifluoromethyl)-1,2-dihydropyridine-3-carboxamide], for which the half-inhibitory concentration (IC50) was 1340 nM.

For the compound `O=C(NC(c1ccccc1OC(F)(F)F)c1ccccc1OC(F)(F)F)c1ccc(C(F)(F)F)[nH]c1=O` [Compound 79, N-(bis(2-(trifluoromethoxy)phenyl)methyl)-2-oxo-6-(trifluoromethyl)-1,2-dihydropyridine-3-carboxamide], the 50% inhibitory concentration (IC50) turned out to be 2330 nM.

On to `O=C(NC(c1ccccc1)c1ccc2c(c1)CCCO2)c1ccc(C(F)(F)F)[nH]c1=O` (centres unmarked) [Compound 81, N-(chroman-6-yl(phenyl)methyl)-2-oxo-6-(trifluoromethyl)-1,2-dihydropyridine-3-carboxamide], for which the half-inhibitory concentration (IC50) came out at 1090 nM.

For the compound `O=C(NC(c1ccccc1)c1ccc2c(c1)CCOC2)c1ccc(C(F)(F)F)[nH]c1=O` (centres unmarked) [Compound 82, N-(isochroman-6-yl(phenyl)methyl)-2-oxo-6-(trifluoromethyl)-1,2-dihydropyridine-3-carboxamide], the 50% inhibitory concentration (IC50) was found to be 840 nM.

As to `O=C(NC(c1ccccc1)c1ccc2c(c1)COCC2)c1ccc(C(F)(F)F)[nH]c1=O` (centres unmarked) [Compound 83, N-(isochroman-7-yl(phenyl)methyl)-2-oxo-6-(trifluoromethyl)-1,2-dihydropyridine-3-carboxamide], the 50% inhibitory concentration (IC50) came out at 2370 nM.

As for `O=C(NC(c1ccccc1)c1ccc2c(c1)OCC2)c1ccc(C(F)(F)F)[nH]c1=O` (centres unmarked) [Compound 84, N-((2,3-dihydrobenzofuran-6-yl)(phenyl)methyl)-2-oxo-6-(trifluoromethyl)-1,2-dihydropyridine-3-carboxamide], the half-inhibitory concentration (IC50) stood at 1040 nM.

Take `O=C(NC(c1ccccc1)c1ccc(-c2ccncc2)cc1)c1ccc(C(F)(F)F)[nH]c1=O` (centres unmarked) [Compound 85, 2-oxo-N-(phenyl(4-(pyridin-4-yl)phenyl)methyl)-6-(trifluoromethyl)-1,2-dihydropyridine-3-carboxamide]: the IC50 turned out to be 840 nM.

As to `O=C(NC(c1ccccc1)c1ccc(C2CCOC2)cc1)c1ccc(C(F)(F)F)[nH]c1=O` (centres unmarked) [Compound 86, N-(phenyl(4-(tetrahydrofuran-3-yl)phenyl)methyl)-2-oxo-6-(trifluoromethyl)-1,2-dihydropyridine-3-carboxamide], the IC50 is 1940 nM.

In the case of `O=C(NC(c1ccccc1)c1ccc(C2=CCOC2)cc1)c1ccc(C(F)(F)F)[nH]c1=O` (centres unmarked) [Compound 87, N-((4-(2,5-dihydrofuran-3-yl)phenyl)(phenyl)methyl)-2-oxo-6-(trifluoromethyl)-1,2-dihydropyridine-3-carboxamide], the 50% inhibitory concentration (IC50) came out at 1130 nM.

As to `O=C(NC(c1ccccc1)c1ccc(N2CCNCC2)cc1)c1ccc(C(F)(F)F)[nH]c1=O` (centres unmarked) [Compound 88, N-(phenyl(4-(piperazin-1-yl)phenyl)methyl)-2-oxo-6-(trifluoromethyl)-1,2-dihydropyridine-3-carboxamide], the half-inhibitory concentration (IC50) was over 10000 nM.

For `O=C(NC(c1ccccc1)c1ccc2c(c1)OCCC2)c1ccc(C(F)(F)F)[nH]c1=O` (centres unmarked) [Compound 89, N-(chroman-7-yl(phenyl)methyl)-2-oxo-6-(trifluoromethyl)-1,2-dihydropyridine-3-carboxamide], the concentration for half-maximal inhibition (IC50) worked out at 1090 nM.

As for `O=C(NC(c1ccccc1)c1ccc2c(c1)CCC2)c1ccc(C(F)(F)F)[nH]c1=O` (centres unmarked) [Compound 90, N-((2,3-dihydro-1H-inden-5-yl)(phenyl)methyl)-2-oxo-6-(trifluoromethyl)-1,2-dihydropyridine-3-carboxamide], the IC50 was 520 nM.

Regarding `O=C(NC(c1ccccc1)c1ccc2c(c1)CCO2)c1ccc(C(F)(F)F)[nH]c1=O` (centres unmarked) [Compound 91, N-((2,3-dihydrobenzofuran-5-yl)(phenyl)methyl)-2-oxo-6-(trifluoromethyl)-1,2-dihydropyridine-3-carboxamide], the IC50 was found to be 920 nM.
